Results: patent US12398154B2, “Azaquinazoline pan-KRas inhibitors” (Mirati Therapeutics, Inc., priority 2020, dated 2025)

Key:
[1] = target: KRas G12V (Homo sapiens, UniProt P01116, G12V); experiment: biochemical;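 also: KRas binding measured by TR-FRET displacement at room temperature, IC50 fitted from percent of control values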
Procedure: (§1) The ability of a compound to bind to KRas was measured using a TR-FRET displacement assay. […] After a 60-minute incubation at room temperature, the reaction was measured using a BMG LABTECH CLARIO star Plus via TR-FRET. […] The POC values were fit to a 4-parameter IC50 equation and the IC50 value reported.

[2] = tested on: pERK in HCT116 cells; experiment: Inhibition of KRas phosphorylation of ERK (Cisbio HTRF pERK assay); details: Homo sapiens, HCT-116, read-out: Inhibition (HTRF IC50) of KRas-mediated Phosphorylation of ERK, HCT116
[3] = tested on: pERK in PSN1 cells; experiment: as above; details: Homo sapiens, PSN1, 3 h, read-out: Inhibition (HTRF IC50) of KRas-mediated Phosphorylation of ERK, PSN1
[4] = tested on: pERK in H727 cells; experiment: as above; details: Homo sapiens, NCI-H727, read-out: Inhibition (HTRF IC50) of KRas-mediated Phosphorylation of ERK, H727
Procedure: To harvest cells from flask using 0.05% Trypsin/EDTA solution. Add 10 mL of media to stop trypsinizing. Pipette the cells into a conical bottom 50 mL centrifuge tube and centrifuge 5 min×1000 rpm. • 2. Re-suspend the cell pellet in media, take a cell count, and then adjust the cell density using fresh media. • 3. Seed 6,000 cells into cell culture plate with 50 μL media. […] Incubate cell plate overnight in a 37° C., 5% CO2 incubator. • Compound titrations • 1. Use Tecan to complete the compound addition. Compounds start from 10 uM top, 3-fold dilution, and 10 doses. The final DMSO concentration is 0.8%. Dispensed 0.2 uM Trametinib as Min control. • 2. Incubate cell plate for 3 hrs in the incubator. • Detection with cisbio pERK HTRF kit • 1. […] At the end of the compound treatment, flick-off the media. • 3. Add 35 μL of lysis buffer per well using a Multidrop Combi. Then place on a plate agitator shaking at 300 rpm at 4° C. for 40 mins. • 4. Make up the HTRF antibody buffer. For each assay plate, mix 50 μL of d2-conjugate antibody with 950 μL of detection buffer. Similarly, mix 50 μL of Cryptate antibody with 950 μL of detection buffer. Then mix the two diluted antibodies together. • 5. Dispense 3.4 μL the antibody buffer to wells of an empty assay plate. Seal the plate and centrifuge plate 30 sec×1000 rpm. • 6. At the end of the 4° C. lysis, centrifuge the lysate plates 3 mins×1500 rpm. • 7. Use the Bravo to transfer 13.6 μL of lysate from cell culture plate to assay plate.
Then incubate assay plate for 2 hrs at room temperature. […] At the end of incubation, read plate on the Envision after centrifuging plate 30 sec× • 1000 rpm.

[5] = tested on: pERK in ASPC1 cells; experiment: as above; details: Homo sapiens, ASPC1, read-out: Inhibition (HTRF IC50) of KRas-mediated Phosphorylation of ERK, AsPC-1
[6] = tested on: pERK in MKN1 cells; experiment: as above; details: Homo sapiens, MKN-1, 3 h, read-out: Inhibition (HTRF IC50) of KRas-mediated Phosphorylation of ERK, MKN1
[7] = target: KRas G12R (Homo sapiens, UniProt P01116, G12R); experiment: biochemical;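 also: TR-FRET displacement assay of compound binding to KRas, read after one hour at room temperature, potency from a four-parameter fit of percent-of-control values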
Sequence of KRas G12R (P01116 1-169 isoform P01116-2 G12R): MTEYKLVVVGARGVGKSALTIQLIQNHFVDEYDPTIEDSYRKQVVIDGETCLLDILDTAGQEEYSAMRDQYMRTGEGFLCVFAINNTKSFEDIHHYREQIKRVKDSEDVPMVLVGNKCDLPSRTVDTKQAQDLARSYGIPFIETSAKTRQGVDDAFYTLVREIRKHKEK
Procedure: as §1

[8] = target: KRas G12D (Homo sapiens, UniProt P01116, G12D); experiment: biochemical;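 also: TR-FRET displacement binding assay on KRas, read after a one-hour incubation at room temperature, IC50 fitted from percent-of-control values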
Sequence of KRas G12D (P01116 1-169 isoform P01116-2 G12D): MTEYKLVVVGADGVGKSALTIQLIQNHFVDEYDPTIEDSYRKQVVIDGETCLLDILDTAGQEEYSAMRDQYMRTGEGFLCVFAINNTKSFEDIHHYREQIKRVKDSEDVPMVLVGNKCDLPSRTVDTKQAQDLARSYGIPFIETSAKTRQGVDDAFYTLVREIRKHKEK
Procedure: as §1

Sequence of KRas G12V (P01116 1-169 isoform P01116-2 G12V): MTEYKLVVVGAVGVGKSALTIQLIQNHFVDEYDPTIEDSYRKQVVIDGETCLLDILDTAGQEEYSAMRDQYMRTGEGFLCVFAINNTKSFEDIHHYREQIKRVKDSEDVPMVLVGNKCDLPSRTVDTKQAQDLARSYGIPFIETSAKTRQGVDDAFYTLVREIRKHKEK

CCc1c(F)ccc2cc(O)cc(-c3ncc4c(N5CC6CCC(C6)C5)nc(OC[C@@]56CCCN5C[C@H](F)C6)nc4c3F)c12 [Example 350, 4-(4-(3-azabicyclo[3.2.I]octan-3-yl)-8-fluoro-2-(((2R,7aS)-2-fluorohexahydro-1H-pyrrolizin-7a-yl)methoxy)pyrido[4,3-d]pyrimidin-7-yl)-5-ethyl-6-fluoronaphthalen-2-ol]
IC50 [1]: 8 nM | IC50 [2]: 797 nM | IC50 [3]: ≥ 10000 nM | IC50 [4]: 334 nM | IC50 [5]: 241 nM | IC50 [6]: 209 nM | IC50 [7]: 8 nM | IC50 [8]: 30 nM

CCc1c(F)ccc2cc(O)cc(-c3ncc4c(N5CCCC6(C5)NC(=O)NC6=O)nc(OCC5(CN(C)C)CC5)nc4c3F)c12 (centres unmarked) [Example 359, 7-(2-((1-((dimethylamino)methyl)cyclopropyl)methoxy)-7-(8-ethyl-7-fluoro-3-hydroxynaphthalen-1-yl)-8-fluoropyrido[4,3-d]pyrimidin-4-yl)-1,3,7-triazaspiro[4.5]decane-2,4-dione]
IC50 [1]: ≤ 2 nM | IC50 [2]: 576 nM | IC50 [3]: 4100 nM | IC50 [4]: 782 nM | IC50 [5]: 345 nM | IC50 [6]: 60 nM | IC50 [7]: ≤ 2 nM | IC50 [8]: ≤ 2 nM

CCc1c(F)ccc2cc(O)cc(-c3ncc4c(NCC5CC(=O)NC5=O)nc(OC[C@@]56CCCN5C[C@H](F)C6)nc4c3F)c12 (stereo partly drawn) [Example 367, 3-(((7-(8-ethyl-7-fluoro-3-hydroxynaphthalen-1-yl)-8-fluoro-2-(((2R,7aS)-2-fluorohexahydro-1H-pyrrolizin-7a-yl)methoxy)pyrido[4,3-d]pyrimidin-4-yl)amino)methyl)pyrrolidine-2,5-dione]
IC50 [1]: ≤ 2 nM | IC50 [2]: 375 nM | IC50 [3]: ≥ 10000 nM | IC50 [4]: 244 nM | IC50 [5]: 505 nM | IC50 [6]: 58 nM | IC50 [7]: ≤ 2 nM | IC50 [8]: ≤ 2 nM

C#Cc1c(F)ccc2cc(O)cc(-c3ncc4c(N5CCCC6(CNC6=O)C5)nc(OC[C@@]56CCCN5C[C@H](F)C6)nc4c3F)c12 (stereo partly drawn) [Example 392, 6-(7-(8-ethynyl-7-fluoro-3-hydroxynaphthalen-1-yl)-8-fluoro-2-(((2R,7aS)-2-fluorohexahydro-1H-pyrrolizin-7a-yl)methoxy)pyrido[4,3-d]pyrimidin-4-yl)-2,6-diazaspiro[3.5]nonan-1-one]
IC50 [1]: 3 nM | IC50 [2]: 2250 nM | IC50 [3]: 6020 nM | IC50 [4]: 1370 nM | IC50 [5]: 1180 nM | IC50 [6]: 336 nM | IC50 [7]: 3 nM | IC50 [8]: ≤ 2 nM

OCC1COCCN(c2nc(OC[C@@]34CCCN3C[C@H](F)C4)nc3c(F)c(-c4cc(O)cc5ccc(F)c(Br)c45)ncc23)C1 (stereo partly drawn) [Example 401, 5-bromo-6-fluoro-4-(8-fluoro-2-(((2R,7aS)-2-fluorohexahydro-1H-pyrrolizin-7a-yl)methoxy)-4-(6-(hydroxymethyl)-1,4-oxazepan-4-yl)pyrido[4,3-d]pyrimidin-7-yl)naphthalen-2-ol]
IC50 [1]: ≤ 2 nM | IC50 [2]: 1150 nM | IC50 [3]: 9960 nM | IC50 [4]: 253 nM | IC50 [5]: 162 nM | IC50 [6]: 82 nM | IC50 [7]: ≤ 2 nM | IC50 [8]: ≤ 2 nM

O=C1NC(=O)C2CN(c3nc(OC[C@@]45CCCN4C[C@H](F)C5)nc4c(F)c(-c5cc(O)cc6ccc(F)c(Br)c56)ncc34)CC12 (stereo partly drawn) [Example 404, 5-(7-(8-bromo-7-fluoro-3-hydroxynaphthalen-1-yl)-8-fluoro-2-(((2R,7aS)-2-fluorohexahydro-1H-pyrrolizin-7a-yl)methoxy)pyrido[4,3-d]pyrimidin-4-yl)tetrahydropyrrolo[3,4-c]pyrrole-1,3(2H,3aH)-dione]
IC50 [1]: ≤ 2 nM | IC50 [2]: 1380 nM | IC50 [3]: ≥ 10000 nM | IC50 [4]: 822 nM | IC50 [5]: 136 nM | IC50 [6]: 55 nM | IC50 [7]: ≤ 2 nM | IC50 [8]: ≤ 2 nM

O=C1NCC2(CCCN(c3nc(OC[C@@]45CCCN4C[C@H](F)C5)nc4c(F)c(-c5cc(O)cc6ccc(F)c(Br)c56)ncc34)C2)N1 (stereo partly drawn) [Example 409, 7-(7-(8-bromo-7-fluoro-3-hydroxynaphthalen-1-yl)-8-fluoro-2-(((2R,7aS)-2-fluorohexahydro-1H-pyrrolizin-7a-yl)methoxy)pyrido[4,3-d]pyrimidin-4-yl)-1,3,7-triazaspiro[4.5]decan-2-one]
IC50 [1]: ≤ 2 nM | IC50 [2]: 1180 nM | IC50 [3]: ≥ 10000 nM | IC50 [4]: 593 nM | IC50 [5]: 398 nM | IC50 [6]: 94 nM | IC50 [7]: ≤ 2 nM | IC50 [8]: ≤ 2 nM

O=C1NC(=O)C2(CCCN(c3nc(OC[C@@]45CCCN4C[C@H](F)C5)nc4c(F)c(-c5cc(O)cc6ccc(F)c(Br)c56)ncc34)C2)N1 (stereo partly drawn) [Example 410, 7-(7-(8-bromo-7-fluoro-3-hydroxynaphthalen-1-yl)-8-fluoro-2-(((2R,7aS)-2-fluorohexahydro-1H-pyrrolizin-7a-yl)methoxy)pyrido[4,3-d]pyrimidin-4-yl)-1,3,7-triazaspiro[4.5]decane-2,4-dione]
IC50 [1]: ≤ 2 nM | IC50 [2]: 602 nM | IC50 [3]: 3150 nM | IC50 [4]: 603 nM | IC50 [5]: 365 nM | IC50 [6]: 157 nM | IC50 [7]: ≤ 2 nM | IC50 [8]: ≤ 2 nM

O=C1NC(=O)[C@]2(CCCN(c3nc(OC[C@@]45CCCN4C[C@H](F)C5)nc4c(F)c(-c5cc(O)cc6ccc(F)c(Cl)c56)ncc34)C2)N1 [Example 413, (R)-7-(7-(8-chloro-7-fluoro-3-hydroxynaphthalen-1-yl)-8-fluoro-2-(((2R,7aS)-2-fluorohexahydro-1H-pyrrolizin-7a-yl)methoxy)pyrido[4,3-d]pyrimidin-4-yl)-1,3,7-triazaspiro[4.5]decane-2,4-dione]
IC50 [1]: ≤ 2 nM | IC50 [2]: 484 nM | IC50 [3]: 2530 nM | IC50 [4]: 408 nM | IC50 [5]: 479 nM | IC50 [6]: 33 nM | IC50 [7]: 3 nM | IC50 [8]: ≤ 2 nM

NS(=O)(=O)CC1CCCN(c2nc(OC[C@@]34CCCN3C[C@H](F)C4)nc3c(F)c(-c4cc(O)cc5ccc(F)c(Cl)c45)ncc23)C1 (stereo partly drawn) [Example 414, 1-(1-(7-(8-chloro-7-fluoro-3-hydroxynaphthalen-1-yl)-8-fluoro-2-(((2R,7aS)-2-fluorotetrahydro-1H-pyrrolizin-7a(5H)-yl)methoxy)pyrido[4,3-d]pyrimidin-4-yl)piperidin-3-yl)methanesulfonamide]
IC50 [1]: ≤ 2 nM | IC50 [2]: 514 nM | IC50 [3]: 3480 nM | IC50 [4]: 269 nM | IC50 [5]: 1330 nM | IC50 [6]: 32 nM | IC50 [7]: 4 nM | IC50 [8]: ≤ 2 nM

O=C1NC[C@]2(CCCN(c3nc(OC[C@@]45CCCN4C[C@H](F)C5)nc4c(F)c(-c5cc(O)cc6ccc(F)c(Cl)c56)ncc34)C2)N1 [Example 415, (S)-7-(7-(8-chloro-7-fluoro-3-hydroxynaphthalen-1-yl)-8-fluoro-2-(((2R,7aS)-2-fluorohexahydro-1H-pyrrolizin-7a-yl)methoxy)pyrido[4,3-d]pyrimidin-4-yl)-1,3,7-triazaspiro[4.5]decan-2-one]
IC50 [1]: 40 nM | IC50 [2]: 2560 nM | IC50 [3]: ≥ 10000 nM | IC50 [4]: 903 nM | IC50 [5]: 548 nM | IC50 [6]: 46 nM | IC50 [7]: 3 nM | IC50 [8]: ≤ 2 nM

OCC1COCCN(c2nc(OC[C@@]34CCCN3C[C@H](F)C4)nc3c(F)c(-c4cc(O)cc5ccc(F)c(Cl)c45)ncc23)C1 (stereo partly drawn) [Example 420, 5-chloro-6-fluoro-4-(8-fluoro-2-(((2R,7aS)-2-fluorohexahydro-1H-pyrrolizin-7a-yl)methoxy)-4-(6-(hydroxymethyl)-1,4-oxazepan-4-yl)pyrido[4,3-d]pyrimidin-7-yl)naphthalen-2-ol]
IC50 [1]: ≤ 2 nM | IC50 [2]: 1310 nM | IC50 [3]: ≥ 10000 nM | IC50 [4]: 366 nM | IC50 [5]: 859 nM | IC50 [6]: 56 nM | IC50 [7]: 4 nM | IC50 [8]: 3 nM

Cc1c(F)ccc2cc(O)cc(-c3ncc4c(N5CCCC(CS(N)(=O)=O)C5)nc(OC[C@@]56CCCN5C[C@H](F)C6)nc4c3F)c12 (stereo partly drawn) [Example 461, 1-(1-(8-fluoro-7-(7-fluoro-3-hydroxy-8-methylnaphthalen-1-yl)-2-(((2R,7aS)-2-fluorohexahydro-1H-pyrrolizin-7a-yl)methoxy)pyrido[4,3-d]pyrimidin-4-yl)piperidin-3-yl)methanesulfonamide]
IC50 [1]: ≤ 2 nM | IC50 [2]: 172 nM | IC50 [3]: 3760 nM | IC50 [4]: 239 nM | IC50 [5]: 1150 nM | IC50 [6]: 18 nM | IC50 [7]: ≤ 2 nM | IC50 [8]: ≤ 2 nM
